Experimental data as given in patent US20140314780A1, “Compositions Using Antibodies Directed to GPNMB and Uses Thereof” (Celldex Therapeutics, Inc., priority 2008, published 2014).
Entries after “also recorded” stand apart in the source; their conditions may differ.

Tests used:
Format in all cases: cell-based, human
GPNMB = experiment: Immunoblotting for GPNMB on whole-cell lysates of cancer cell lines after drug exposure; details: for increase of GPNMB expression in the screen: determined by immunoblotting and/or flow cytometry analysis; for GPNMB expressed after protein synthesis inhibition: 1 hour, absence of ammonium chloride (FIG. 6D)
Source text: Cancer cell lines were of human origin and were obtained from the American Type Culture Collection (Manassas, Va.) and from the National Cancer Institute (Bethesda, Md.) and cultured in RPMI-1640 supplemented with 10% FBS (growth media). Sources of reagents were as follows: RAFKi (553013), MEKi (U0126), MEKi (PD98059), MEKi (444939), ERKi (FR180204), p38 MAPKi (SB202190), p38 MAPKi (SB203580), aurora kinase inhibitor (189404), JNK inhibitor (420119), MMPi (GM6001) were from EMD Chemicals (San Diego, Calif.). ERKi (A6355), RAFKi: (GW5074), ammonium chloride (NH4Cl), chloroquine, monensin, cyclohexamide and emetine were from Sigma (Saint Louis, Mo.). HSP90i (geldanamycin) was from AG Scientific (San Diego, Calif.) and imatinib (Gleevec) was purchased from a pharmacy.
Cells were seeded in 6-well tissue culture dishes at a subconfluent density and allowed to attach overnight. For harvesting cell lysates, media was removed, cells were briefly washed with serum-free media and then 1× Tris-glycine SDS sample buffer (Invitrogen, Carlsbad, Calif.) supplemented with 10 mM dithiothreitol (Sigma) was added directly to the wells. Cell lysates were then collected and boiled for 10 minutes. For preparing conditioned media, drug treatments were performed in a minimum volume of growth media (1.5 mL/well). Following 48 hours of incubation, conditioned media was collected, briefly microfuged, mixed with an equal volume of 2× Tris-glycine SDS sample buffer (Invitrogen, Carlsbad, Calif.) supplemented with 20 mM dithiothreitol (Sigma) and boiled for 10 minutes. For cell lysates, samples were quantified and an equal quantity of protein/lane was resolved on 4-20% gradient polyacrylamide gels (Invitrogen) and then transferred to nitrocellulose filters (Invitrogen). The volume of conditioned media loaded/lane was adjusted based on the protein concentration determined in the respective cell lysates. Immunoblotting was performed using standard procedures and the following primary antibodies: MARTI (sc-20032), TYRP2 (sc-25544), TYRP1 (sc-25543), PMEL17 (sc-15010), MAGEA1 (sc-20033), MCSP (sc-20162), MTf (sc-26651), MCAM (sc-18942), pp-ERK (sc-7976) and ERK (sc-94) (preceding antibodies were purchased from Santa Cruz Biotechnologies, Santa Cruz, Calif.), GPNMB (AF2550; R & D Systems, Minneapolis Minn.), actin (A5060; Sigma). Following incubation with the appropriate horseradish peroxidase-conjugated secondary antibodies, enhanced chemiluminescence (GE Healthcare, Chalfont St. Giles, United Kingdom) was used for detection.

phospho-ERK (pp-ERK) = experiment: Immunoblotting for phospho-ERK (level of ERK activation)
Source text: In the experiment presented in FIG. 2A, potential inhibition of the ERK pathway was investigated by immunoblotting for phospho-ERK (pp-ERK), which represents the active form of this signaling molecule.

[1] = system: GPNMB surface expression on SF539 glioblastoma cells; experiment: Flow cytometry of GPNMB surface expression, SF539 cells; details: SF549, CR011 (anti-GPNMB) primary antibody
Method: (§1) Cells were seeded in 6-well tissue culture dishes at a subconfluent density and allowed to attach overnight. The following day, cells were treated as indicated in the figures/legends, harvested with versene (Invitrogen), washed with PBS and incubated with primary antibody (10 μg/mL) diluted in staining buffer (PBS pH 7.4, 4% FBS, 0.1% sodium azide) for 30 minutes on ice. […] After incubation with primary antibody, samples were washed with staining buffer and then incubated with secondary antibody (PE-conjugated anti-human antibody; 1:100) for 30 minutes on ice. After incubation, samples were washed with staining buffer and examined on a Becton Dickinson FACSCalibur flow cytometer (BD Immunocytometry Systems, San Jose, Calif.). Data analysis was performed with Becton Dickinson Cell Quest software and the geometric mean fluorescence intensity (GeoMean) was determined for each sample.
(§2) For the data shown in Table 37, flow cytometry was performed on intact, non-permeabilized cells using the indicated primary monoclonal antibodies. […] The results are reported as GeoMeans. […] For the data shown in the bottom left panel of Table 37, SKMEL2 (melanoma) cells were treated with MEKi (U0126; 10 uM), imatinib (20 uM), p38i (p38 MAPKi SB202190; 50 uM), NH4Cl (ammonium chloride; 20 mM) or CLQ (chloroquine; 20 uM) for 48 hours prior to analysis. For the data shown in the bottom right panel of Table 37, WM2664 (melanoma) cells were treated with MON (monensin) or MMPi (GM6001) for 48 hours prior to analysis.

[2] = system: GPNMB surface expression on A375 melanoma cells; experiment: Flow cytometry of GPNMB surface expression, A375 cells; details: for GPNMB surface expression, flow cytometry GeoMean: A375, CR011 (anti-GPNMB) primary antibody
Method: as §1, §2

[3] = system: GPNMB surface expression on SKMEL2 melanoma cells; experiment: Flow cytometry of GPNMB surface expression, SKMEL2 cells; details: for GPNMB surface expression, flow cytometry GeoMean: SKMEL2, CR011 (anti-GPNMB) primary antibody, MEKi (U0126) 10 uM, imatinib 20 uM, p38i (SB202190) 50 uM; for GPNMB surface-expression: SKMEL2 cells, 48 hours (Table 37, bottom left)
Method: as §1
For the data shown in Table 37, flow cytometry was performed on intact, non-permeabilized cells using the indicated primary monoclonal antibodies. […] The results are reported as GeoMeans. For the data shown in the top panel of Table 37, A375 (melanoma) or SF539 (glioblastoma) cells were treated with the indicated concentrations of MEKi (U0126), RAFKi (553013) or ERKi (FR180204) for 12, 24 or 48 hours prior to analysis. For the data shown in the bottom left panel of Table 37, SKMEL2 (melanoma) cells were treated with MEKi (U0126; 10 uM), imatinib (20 uM), p38i (p38 MAPKi SB202190; 50 uM), NH4Cl (ammonium chloride; 20 mM) or CLQ (chloroquine; 20 uM) for 48 hours prior to analysis. For the data shown in the bottom right panel of Table 37, WM2664 (melanoma) cells were treated with MON (monensin) or MMPi (GM6001) for 48 hours prior to analysis.

UACC62 melanoma cells = experiment: In vitro growth-inhibition/cytotoxicity assay, UACC62 cells; details: 0.16 μg/mL, 72 hours, trypan blue
[4] = melanoma lines SKMEL2, A375, WM2664, MEWO, 48 hours (FIG. 6A)

In the case of `Cc1ccc2nc(NCCN)c3ncc(C)n3c2c1` [BMS345541], the “increase of GPNMB expression in the screen” value (shortened to “increase of GPNMB expression”) (GPNMB) is reported as “ineffective”.

With `Nc1n[nH]c2nnc(-c3c(-c4ccccc4)nn4ccccc34)cc12` [FR180204, 5-(2-phenylpyrazolo[1,5-a]pyridin-3-yl)-1H-pyrazolo[3,4-c]pyridazin-3-amine] the “inhibition of the ERK pathway (phospho-ERK levels)” value (phospho-ERK (pp-ERK); FIG. 3B bottom, A375, SKMEL2, SF539) was “relatively weak inhibition”, the “GPNMB surface expression, flow cytometry GeoMean” value ([1]; ERKi (FR180204) 3.1 uM, 12 h) was 32.6 and the “GPNMB surface expression, flow cytometry GeoMean” value ([1]; ERKi (FR180204) 3.1 uM, 24 h) was 33.7. For the same compound, the “GPNMB surface expression, flow cytometry GeoMean” value ([1]; ERKi (FR180204) 3.1 uM, 48 h) was 32.6, the “GPNMB surface expression, flow cytometry GeoMean” value ([1]; ERKi (FR180204) 50 um, 12 h) was 31.3 and the “GPNMB surface expression, flow cytometry GeoMean” value ([1]; ERKi (FR180204) 50 um, 24 h) was 30.7. The “GPNMB surface expression, flow cytometry GeoMean” value ([1]; ERKi (FR180204) 50 um, 48 h) was 30.6, the “GPNMB induction (immunoblotting)” value (GPNMB; A375 cells, only following an exposure time of 48 hours (FIG. 3B, bottom)) was “strong induction” and the “GPNMB induction (immunoblotting)” value (GPNMB; SKMEL2 or SF539 cells (FIG. 3B, bottom)) was “Little or no GPNMB induction”. For the same compound, the “GPNMB surface expression, flow cytometry GeoMean” value ([2]; ERKi (FR180204) 3.1 uM, 12 h) was 13.0, the “GPNMB surface expression, flow cytometry GeoMean” value ([2]; ERKi (FR180204) 3.1 uM, 24 h) was 13.5 and the “GPNMB surface expression, flow cytometry GeoMean” value ([2]; ERKi (FR180204) 3.1 uM, 48 h) was 13.1. The “GPNMB surface expression, flow cytometry GeoMean” value ([2]; ERKi (FR180204) 50 um, 12 h) was 13.0, the “GPNMB surface expression, flow cytometry GeoMean” value ([2]; ERKi (FR180204) 50 um, 24 h) was 14.9 and the “GPNMB surface expression, flow cytometry GeoMean” value ([2]; ERKi (FR180204) 50 um, 48 h) was 50.3. The GPNMB surface expression ([2]; A375 melanoma, 12, 24 or 48 hours (Table 37, top)) was “induced GPNMB surface expression”.

For `O=c1cc(N2CCOCC2)oc2c(-c3ccccc3)cccc12` [LY94002], the “increase of GPNMB expression” value (GPNMB) was “ineffective”.

With `Nc1ncn([C@@H]2O[C@H](CO)[C@@H](O)[C@H]2O)c(=O)n1` [Mab 5-AZA] the “increase of GPNMB expression” value (GPNMB) was “ineffective”.

In the case of `Oc1ccc(-c2nc(-c3ccc(F)cc3)c(-c3ccncc3)[nH]2)cc1` [SB202190, 4-[4-(4-Fluorophenyl)-5-(4-pyridinyl)-1H-imidazol-2-yl]phenol], the “GPNMB surface expression, flow cytometry GeoMean” value [3] is reported as 85.1.

For `Cl.N` [ammonium chloride], the “GPNMB surface expression, flow cytometry GeoMean” value [3] was 93.8, the GPNMB surface-expression [3] was “increase GPNMB surface-expression” and the “GPNMB induction compared with MTf and MCAM” value (GPNMB; NH4Cl 20 mM, 48 hours (FIG. 6E)) was “more highly induced”. The “GPNMB detection with protein synthesis inhibitor” value (GPNMB; ammonium chloride (50 mM) along with protein synthesis inhibitor, 1 hour (FIG. 6D)) was “readily detectable” and the “GPNMB expression (immunoblotting)” value (GPNMB; [4]) was “induced”.

With `O=C(/C=C/c1cccc(S(=O)(=O)Nc2ccccc2)c1)NO` [belinostat] the “increase of GPNMB expression” value (GPNMB) was “ineffective”.

With `CC(C)C[C@H](NC(=O)[C@H](Cc1ccccc1)NC(=O)c1cnccn1)B(O)O` [bortezomib] the “increase of GPNMB expression” value (GPNMB) was “ineffective”.

With `O=NN(CCCl)C(=O)NCCCl` [carmustine] the “increase of GPNMB expression” value (GPNMB) was “ineffective”.

For `CCN(CC)CCCC(C)Nc1ccnc2cc(Cl)ccc12` (centres unmarked) [chloroquine], the “GPNMB surface expression, flow cytometry GeoMean” value [3] was 91.2, the GPNMB surface-expression [3] was “increase GPNMB surface-expression” and the “GPNMB expression (immunoblotting)” value (GPNMB; [4]) was “induced”.

In the case of `N.N.[Cl][Pt][Cl]` [cisplatin], the “increase of GPNMB expression” value (GPNMB) is reported as “ineffective”.

With `C[C@@H]1C[C@@H]([C@H](O)CC2CC(=O)NC(=O)C2)C(=O)[C@@H](C)C1` [cyclohexamide] the “GPNMB expressed after protein synthesis inhibition” value (GPNMB) was “little or no GPNMB”.

For `CC[C@H]1CN2CCc3cc(OC)c(OC)cc3[C@@H]2C[C@@H]1C[C@H]1NCCc2cc(OC)c(OC)cc21` [emetine], the “GPNMB expressed after protein synthesis inhibition” value (GPNMB) was “little or no GPNMB”.

In the case of `Cc1ccc(NC(=O)c2ccc(CN3CCN(C)CC3)cc2)cc1Nc1nccc(-c2cccnc2)n1` [imatinib], the phospho-ERK (phospho-ERK (pp-ERK); melanoma and glioblastoma cell lines, imatinib 20 μM, 48 hours (FIG. 6B)) is reported as “without inhibiting phospho-ERK”, the “GPNMB surface expression, flow cytometry GeoMean” value [3] is reported as 103.7 and the GPNMB surface-expression [3] is reported as “increase GPNMB surface-expression”. The “GPNMB expression (immunoblotting)” value (GPNMB; [4]) was “induced” and the “GPNMB expression (immunoblotting)” value (GPNMB; variety of melanoma and glioblastoma cell lines, 48 hours (FIG. 6B, 6C)) was “strongly induced; also recorded: robust GPNMB expression”.

`CC(=O)O[C@H]1C(=O)[C@@]2(C)[C@H]([C@H](OC(=O)c3ccccc3)[C@]3(O)C[C@H](OC(=O)[C@H](O)[C@@H](NC(=O)c4ccccc4)c4ccccc4)C(C)=C1C3(C)C)[C@]1(OC(C)=O)CO[C@@H]1C[C@@H]2O` [paclitaxel] was tested, and the “increase of GPNMB expression” value (GPNMB) was “ineffective”.

In the case of “CR011-vcMMAE: antibody-drug conjugate of anti-GPNMB antibody CR011 with Auristatin E (vcMMAE) through a protease-cleavable linker”, the growth-inhibition (UACC62 melanoma cells; UACC62 cells not pretreated with the MEK inhibitor) is reported as “little growth-inhibition” and the growth-inhibition (UACC62 melanoma cells; UACC62 cells pretreated with the MEK inhibitor (U0126 1 μM, 48 hours)) is reported as “strong growth-inhibition”.

With IFNα the “increase of GPNMB expression” value (GPNMB) was “ineffective”.

With “IFNγ: IFNγ, compound examined in the screen” the “increase of GPNMB expression” value (GPNMB) was “ineffective”.
